The target of assay [1] is T1, α1A-adrenoceptor (Rattus norvegicus, UniProt P43140).
T1 construct: from tissue; host or cells: rat submaxillary gland membranes
T1 sequence (P43140 1-466): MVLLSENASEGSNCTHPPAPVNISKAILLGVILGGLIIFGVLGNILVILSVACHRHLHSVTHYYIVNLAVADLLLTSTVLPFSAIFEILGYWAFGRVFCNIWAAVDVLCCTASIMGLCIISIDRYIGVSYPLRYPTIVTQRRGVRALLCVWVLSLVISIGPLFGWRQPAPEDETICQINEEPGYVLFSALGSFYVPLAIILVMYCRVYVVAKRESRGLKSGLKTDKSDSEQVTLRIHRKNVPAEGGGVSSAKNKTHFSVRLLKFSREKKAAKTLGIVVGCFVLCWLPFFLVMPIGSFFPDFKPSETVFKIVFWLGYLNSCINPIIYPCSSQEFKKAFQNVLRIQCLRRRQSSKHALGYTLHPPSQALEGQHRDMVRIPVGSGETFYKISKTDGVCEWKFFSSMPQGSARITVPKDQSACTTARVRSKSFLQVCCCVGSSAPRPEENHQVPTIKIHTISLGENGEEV
Briefly: Receptor binding assay, [3H]prazosin, rat submaxillary membranes. To be noted: rat submaxillary membranes, 0.5 nM [3H]prazosin; read-out: RBA (Ki nM) α1A. How it is done: Receptor binding assays, (RBA's) were performed for native α1-adrenoceptors. Rat submaxillary and rat liver membrane preparations were used to assess the affinity for α1A and α1B subtypes, respectively. Aliquots of membrane protein ([…]) were incubated in a final volume of […] assay buffer (50 mM Tris, 0.5 mM EDTA at pH 7.4) with 0.5 nM [^3H] prazosin for 60 mins at 28 ° C. Reaction was stopped by rapid filtration on Millipore filters. Filters were dried and bound radioactivity counted. Non-specific binding was determined in the presence of 0.3 mM prazosin.

In assay [2] the target is T2, β1-adrenoceptor (Rattus norvegicus, UniProt P18090).
T2 construct: from tissue; host or cells: rat ventricular strips
T2 sequence (P18090 whole entry): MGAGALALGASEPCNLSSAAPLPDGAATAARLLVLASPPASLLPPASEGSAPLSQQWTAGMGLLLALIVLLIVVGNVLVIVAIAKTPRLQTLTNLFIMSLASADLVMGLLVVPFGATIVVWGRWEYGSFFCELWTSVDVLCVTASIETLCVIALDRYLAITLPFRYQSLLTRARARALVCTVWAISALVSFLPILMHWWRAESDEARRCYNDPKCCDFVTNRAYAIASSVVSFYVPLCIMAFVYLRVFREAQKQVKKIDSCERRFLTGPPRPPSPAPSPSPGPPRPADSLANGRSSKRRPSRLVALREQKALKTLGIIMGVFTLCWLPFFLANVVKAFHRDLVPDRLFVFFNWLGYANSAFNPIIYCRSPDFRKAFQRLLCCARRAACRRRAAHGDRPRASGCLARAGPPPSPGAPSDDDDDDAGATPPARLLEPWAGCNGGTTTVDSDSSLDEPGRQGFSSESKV
As to the kind of experiment: Receptor selectivity, electrically stimulated rat ventricular strips. To be noted: read-out: pKB B-adrenergic (converted). It is filed as cell-based. How it is done: (§1) Selectivity of action of the present compounds was tested against a range of different receptors, e.g., β1- and α2-adrenergic, muscarinic cholinergic, serotoninergic (5-HT2A), histaminergic (H1), angiotensin II, endothelin (ETA and B,), as well as calcium and potassium channels. Rat aorta was used to study the effect of the compounds on 5-HT2A, ETA, calcium and potassium channels. Angiotensin II receptor antagonistic activity was studied in rabbit aorta. Muscarinic cholinergic receptor and ETB receptor antagonistic activity was studied in rat trachea, while guinea pig trachea was used to study H1 receptor antagonistic activity. Electrically stimulated rat vas deferens was used to investigate the effect of α2-adrenoceptors, while β1-adrenoceptor antagonistic activity was studied using electrically stimulated rat ventricular strips. Results of this selectivity study is shown in (Table 2).

Assay [3] addresses T3, H1 receptor (Cavia porcellus, UniProt P31389).
T3 construct: guinea pig trachea was used to study H1 receptor antagonistic activity; from tissue; host or cells: guinea pig trachea
Briefly: Receptor selectivity, guinea pig trachea. To be noted: read-out: pKB H1-Histaminergic (converted). It counts as cell-based. Here is the method: as §1

Assay [4] deals with T4, 5-HT2A (Rattus norvegicus, UniProt P14842).
T4 construct: from tissue; host or cells: rat aorta
T4 sequence (P14842 whole entry): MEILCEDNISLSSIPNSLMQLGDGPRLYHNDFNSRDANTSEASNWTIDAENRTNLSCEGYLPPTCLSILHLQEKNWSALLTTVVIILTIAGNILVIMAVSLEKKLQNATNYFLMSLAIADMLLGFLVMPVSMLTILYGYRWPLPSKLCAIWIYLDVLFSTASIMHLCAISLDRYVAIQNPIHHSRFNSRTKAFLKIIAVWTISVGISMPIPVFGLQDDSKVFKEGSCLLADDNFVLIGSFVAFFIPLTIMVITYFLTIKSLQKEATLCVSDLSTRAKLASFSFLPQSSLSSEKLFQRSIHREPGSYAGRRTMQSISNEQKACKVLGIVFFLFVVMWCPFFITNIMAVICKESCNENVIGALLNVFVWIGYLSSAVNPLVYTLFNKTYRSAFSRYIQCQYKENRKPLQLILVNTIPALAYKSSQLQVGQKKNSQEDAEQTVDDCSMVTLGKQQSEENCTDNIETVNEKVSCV
Briefly: Receptor selectivity, rat aorta. To be noted: read-out: pKB 5-HT2A (converted). It counts as cell-based. How it is done:
as §1

Assay [5] relates to anaesthetized dogs (blood pressure). Briefly: In vivo selectivity study, phenylephrine response on blood pressure in anaesthetized dogs. Set-up: species or system dog. To be noted: Canis lupus familiaris, iv 0.01-0.3 mg/kg, against phenylephrine, read-out: pseudo pKB Blood Pressure (converted). How it is done:
(§2) Male mongrel dogs (12-20 Kg) were anaesthetized with pentobarbitone sodium (35 mg/kg, iv). Trachea was intubated for artificial respiration. Femoral artery and femoral vein were cannulated for recording blood pressure and for administration of drug solutions, respectively. Blood pressure was recorded on a polygraph through a pressure transducer. A paramedian incision was made lateral to the penis and the bladder was exposed. Urine was drained through a cannula put directly into the bladder and it was guided into the urethra gently and was placed at the prostatic urethra. Balloon was inflated with 2 cc air and its placement was confirmed by digital pressure. Intraurethral pressure was recorded on the polygraph through a pressure transducer. Graded dose response relationship of phenylephrine (1-16 μg/kg, iv) was obtained on prostatic pressure and blood pressure, prior to administration of the compounds of the present invention. Compounds 2, 9, and 13 (at dosages of 0.01, 0.03, 0.1, and 0.3 mg/kg) were administered intravenously 10 min before obtaining phenylephrine dose response curves. Results were analyzed and pseudo PKB values were calculated as described in Kenny et al (1996).

Assay [6] relates to anaesthetized dogs (intraurethral pressure). Briefly: In vivo selectivity study, phenylephrine response on intraurethral (prostatic) pressure in anaesthetized dogs. To be noted: Canis lupus familiaris, iv 0.01-0.3 mg/kg, against phenylephrine, read-out: pseudo pKB Intraurethral Pressure (converted). Set-up: species or system dog. How it is done: as §2
Assay [7] addresses T5, ETA (Rattus norvegicus, UniProt P26684).
T5 construct: from tissue; host or cells: rat aorta
T5 sequence (P26684 21-426): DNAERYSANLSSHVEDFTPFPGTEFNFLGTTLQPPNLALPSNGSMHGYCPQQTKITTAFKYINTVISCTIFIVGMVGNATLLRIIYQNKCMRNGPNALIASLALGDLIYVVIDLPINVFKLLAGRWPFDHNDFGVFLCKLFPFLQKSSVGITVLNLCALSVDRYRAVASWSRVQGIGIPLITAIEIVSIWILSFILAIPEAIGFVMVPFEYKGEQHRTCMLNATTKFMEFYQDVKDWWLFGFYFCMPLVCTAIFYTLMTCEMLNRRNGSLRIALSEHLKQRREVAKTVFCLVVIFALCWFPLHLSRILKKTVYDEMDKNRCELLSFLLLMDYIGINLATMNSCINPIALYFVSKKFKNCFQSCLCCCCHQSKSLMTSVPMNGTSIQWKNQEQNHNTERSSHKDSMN
Briefly: Receptor selectivity, rat aorta. It counts as cell-based. To be noted: read-out: pKB ETA (converted). Here is the method: as §1

Assay [8] deals with T6, ETB receptor (Rattus norvegicus, UniProt P21451).
T6 construct: from tissue; host or cells: rat trachea
T6 sequence (P21451 27-442): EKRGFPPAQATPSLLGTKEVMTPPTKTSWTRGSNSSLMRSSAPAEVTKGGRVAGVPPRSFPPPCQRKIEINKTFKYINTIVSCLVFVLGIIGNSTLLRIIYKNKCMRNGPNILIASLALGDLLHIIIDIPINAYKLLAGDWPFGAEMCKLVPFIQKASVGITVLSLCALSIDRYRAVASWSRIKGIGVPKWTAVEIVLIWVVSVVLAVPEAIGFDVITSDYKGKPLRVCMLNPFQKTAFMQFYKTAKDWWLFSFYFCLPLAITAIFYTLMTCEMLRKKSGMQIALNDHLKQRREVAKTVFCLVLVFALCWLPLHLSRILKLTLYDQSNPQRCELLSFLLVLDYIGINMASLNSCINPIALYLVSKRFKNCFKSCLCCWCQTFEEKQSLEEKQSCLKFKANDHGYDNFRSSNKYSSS
Briefly: Receptor selectivity, rat trachea. It counts as cell-based. To be noted: read-out: pKB ETB (converted). How it is done: as §1

The record followed here is patent US6410735B1, “1-(4-arylpiperazin-1-y1)-ω-[N-(α,ω-dicarboximido)]-alkanes useful as uro-selective α1-adrenoceptor blockers” (Ranbaxy Laboratories Limited, priority 1997, dated 2002).

By Ki is commonly meant a dissociation constant, usually derived from enzyme kinetics or from competition with a known ligand.

T3 sequence (P31389 whole entry): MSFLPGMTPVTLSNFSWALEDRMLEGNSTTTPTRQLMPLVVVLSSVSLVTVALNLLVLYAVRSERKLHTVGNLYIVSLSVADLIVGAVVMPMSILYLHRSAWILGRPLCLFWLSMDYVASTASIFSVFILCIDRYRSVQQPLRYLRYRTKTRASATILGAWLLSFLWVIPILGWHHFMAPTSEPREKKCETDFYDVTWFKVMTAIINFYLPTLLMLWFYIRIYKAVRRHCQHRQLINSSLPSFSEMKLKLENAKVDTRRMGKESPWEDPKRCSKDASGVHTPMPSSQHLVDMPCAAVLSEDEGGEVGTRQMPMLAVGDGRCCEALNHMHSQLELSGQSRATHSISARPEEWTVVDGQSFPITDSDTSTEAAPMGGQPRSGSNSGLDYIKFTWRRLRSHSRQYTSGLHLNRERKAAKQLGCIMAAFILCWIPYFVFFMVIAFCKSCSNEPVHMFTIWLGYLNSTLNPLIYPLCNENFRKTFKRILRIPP

Take `COc1ccccc1N1CCN(CCCN2C(=O)CCC2=O)CC1` [Compound 2, 1-[4-(2-Methoxyphenyl)piperazin-1-yl]3-(2,5-dioxopyrrolidin-1-yl)propane]: the Ki in assay [1] was 19 nM. The Kb is 63100 nM in assay [2]; 5010 nM in assay [3]; 25.1 nM in assay [4]; 126 nM in assay [5]; 25.1 nM in assay [6].

With `COc1ccccc1N1CCN(CCCCN2C(=O)CCC2=O)CC1` [Compound 9, 1-[4-(2-Methoxyphenyl)piperazin-1-yl]-4-(2,5-dioxopyrrolidin-1-yl)butane], in assay [1], the inhibition constant Ki was 1 nM. Further, the Kb is 3980 nM in assay [3]; 12.6 nM in assay [4]; 50100 nM in assay [7]; 3980 nM in assay [8]; 39.8 nM in assay [5]; 12.6 nM in assay [6].

Regarding `COc1ccccc1N1CCN(CCCN2C(=O)CCCC2=O)CC1` [Compound 13, 1-[4-(2-Methoxyphenyl)piperazin-1-yl]-3-(2,6-dioxopiperidin-1-yl)propane], in assay [1], the inhibition constant (Ki) is 3 nM. Moreover, the Kb in assay [2] is 7940 nM; in assay [3], 2000 nM; in assay [4], 10 nM; in assay [7], 50100 nM; in assay [8] it was 12600 nM; in assay [5], 79.4 nM. In assay [6], the Kb was 7.94 nM.
